Measurements as given in ChEMBL document CHEMBL5352419, “Design, synthesis, and biological evaluation of tetrahydroquinoline amphiphiles as membrane-targeting antimicrobials against pathogenic bacteria and fungi” (Eur J Med Chem, 2022).
Values after ≈ are worked out from the molar mass of the structure shown.

Legend:
[1] = test system: Candida albicans; assay: Antimicrobial activity against Candida albicans ATCC10231 assessed as fungal growth inhibition incubated for 48 hrs by Sabouraud Dextrose broth based dilution assay; assay type: functional
[2] = test system: Candida albicans; assay: Antimicrobial activity against Candida albicans CMCC98001 assessed as fungal growth inhibition incubated for 48 hrs by Sabouraud Dextrose broth based dilution assay; assay type: functional
[3] = test system: Staphylococcus aureus; assay: Antimicrobial activity against Staphylococcus aureus ATCC29213 assessed as bacterial growth inhibition incubated for 24 hrs by Muller Hinton broth based dilution assay; assay type: functional
[4] = test system: Staphylococcus aureus; assay: Antimicrobial activity against methicillin-resistant Staphylococcus aureus N315 assessed as bacterial growth inhibition incubated for 24 hrs by Muller Hinton broth based dilution assay; assay type: functional
[5] = test system: Staphylococcus aureus; assay: Antimicrobial activity against methicillin-resistant Staphylococcus aureus NCTC10442 assessed as bacterial growth inhibition incubated for 24 hrs by Muller Hinton broth based dilution assay; assay type: functional
[6] = test system: Escherichia coli; assay: Antimicrobial activity against Escherichia coli ATCC25922 assessed as bacterial growth inhibition incubated for 24 hrs by Muller Hinton broth based dilution assay; assay type: functional
[7] = Hemolytic activity in rabbit RBC incubated for 1 hr by absorbance based microplate reader assay; assay type: toxicity, cell-based, Oryctolagus cuniculus, Erythrocyte; conditions: rabbit red blood cells (erythrocytes)

With CCCCCN1CCCc2cc(OCCCCBr)ccc21 the MIC [1] was 50 µg/mL (≈ 141 µM), the MIC [2] was 50 µg/mL (≈ 141 µM) and the MIC [3] was 25 µg/mL (≈ 70.6 µM). For the same compound, the MIC [4] was 25 µg/mL (≈ 70.6 µM), the MIC [5] was 25 µg/mL (≈ 70.6 µM) and the MIC [6] was > 50 µg/mL. For the same compound, the HC50 at 1 h [7] was > 200 µg/mL.

Compound CC(C)=CCC/C(C)=C/CN1CCCc2cc(O)ccc21 has an MIC [1] of 50 µg/mL (≈ 175 µM), an MIC [2] of 25 µg/mL (≈ 87.6 µM) and an MIC [3] of 12.5 µg/mL (≈ 43.8 µM). For the same compound, the MIC [4] was 12.5 µg/mL (≈ 43.8 µM), the MIC [5] was 12.5 µg/mL (≈ 43.8 µM) and the MIC [6] was > 50 µg/mL. The HC50 at 1 h [7] was > 200 µg/mL.

Work on CC(C)=CCC/C(C)=C/CN1CCCc2cc(OCCCCCCCCNC(=N)N)ccc21 yielded an MIC [1] of 0.78 µg/mL (≈ 1.72 µM), an MIC [2] of 0.78 µg/mL (≈ 1.72 µM) and an MIC [3] of 3.12 µg/mL (≈ 6.87 µM). The MIC [4] was 3.12 µg/mL (≈ 6.87 µM), the MIC [5] was 1.56 µg/mL (≈ 3.43 µM) and the MIC [6] was 25 µg/mL (≈ 55 µM). The HC50 at 1 h [7] was > 200 µg/mL.

For C[C@@H]1C/C=C/C=C/C=C/C=C/[C@H](O[C@@H]2O[C@H](C)[C@@H](O)[C@H](N)[C@@H]2O)C[C@@H]2O[C@](O)(C[C@@H](O)C[C@H]3O[C@@H]3/C=C/C(=O)O1)C[C@H](O)[C@H]2C(=O)O [NATAMYCIN], the MIC [1] was 6.25 µg/mL (≈ 9.39 µM) and the MIC [2] was 6.25 µg/mL (≈ 9.39 µM).

With Oc1ccc2c(c1)CCCN2CCCC(F)(F)F the MIC [1] was > 50 µg/mL, the MIC [2] was > 50 µg/mL and the MIC [3] was > 50 µg/mL. The MIC [4] was > 50 µg/mL, the MIC [5] was > 50 µg/mL and the MIC [6] was > 50 µg/mL. For the same compound, the HC50 at 1 h [7] was > 200 µg/mL.

With CC(C)=CCN1CCCc2cc(O)ccc21 the MIC [1] was > 50 µg/mL, the MIC [2] was > 50 µg/mL and the MIC [3] was 50 µg/mL (≈ 230 µM). The MIC [4] was 50 µg/mL (≈ 230 µM), the MIC [5] was 50 µg/mL (≈ 230 µM) and the MIC [6] was > 50 µg/mL. The HC50 at 1 h [7] was > 200 µg/mL.

For CC(C)=CCN1CCCc2cc(OCCCCN3CCSCC3)ccc21, the MIC [1] was > 50 µg/mL, the MIC [2] was > 50 µg/mL and the MIC [3] was > 50 µg/mL. For the same compound, the MIC [4] was > 50 µg/mL, the MIC [5] was > 50 µg/mL and the MIC [6] was > 50 µg/mL. For the same compound, the HC50 at 1 h [7] was > 200 µg/mL.

For CC(C)=CCN1CCCc2cc(OCCCNC(=N)N)ccc21, the MIC [1] was > 50 µg/mL, the MIC [2] was > 50 µg/mL and the MIC [3] was 6.25 µg/mL (≈ 19.8 µM). It also gave an MIC [4] of 6.25 µg/mL (≈ 19.8 µM), an MIC [5] of 6.25 µg/mL (≈ 19.8 µM) and an MIC [6] of 50 µg/mL (≈ 158 µM). For the same compound, the HC50 at 1 h [7] was > 200 µg/mL.

In the case of CCCCCCCN1CCCc2cc(O)ccc21, the MIC [1] is reported as > 50 µg/mL, the MIC [2] is reported as > 50 µg/mL and the MIC [3] is reported as 12.5 µg/mL (≈ 50.5 µM). For the same compound, the MIC [4] was 12.5 µg/mL (≈ 50.5 µM), the MIC [5] was 12.5 µg/mL (≈ 50.5 µM) and the MIC [6] was > 50 µg/mL. For the same compound, the HC50 at 1 h [7] was > 200 µg/mL.

CC(C)=CCN1CCCc2cc(OCCCCCCBr)ccc21 showed an MIC [1] of 50 µg/mL (≈ 131 µM), an MIC [2] of 50 µg/mL (≈ 131 µM) and an MIC [3] of 50 µg/mL (≈ 131 µM). For the same compound, the MIC [4] was 25 µg/mL (≈ 65.7 µM), the MIC [5] was 25 µg/mL (≈ 65.7 µM) and the MIC [6] was > 50 µg/mL. For the same compound, the HC50 at 1 h [7] was > 200 µg/mL.

In the case of CCCCCCCCCN1CCCc2cc(OCCCCCCCCNC(=N)N)ccc21, the MIC [1] is reported as 0.78 µg/mL (≈ 1.75 µM), the MIC [2] is reported as 1.56 µg/mL (≈ 3.51 µM) and the MIC [3] is reported as 3.12 µg/mL (≈ 7.03 µM). It also gave an MIC [4] of 3.12 µg/mL (≈ 7.03 µM), an MIC [5] of 3.12 µg/mL (≈ 7.03 µM) and an MIC [6] of 25 µg/mL (≈ 56.2 µM). For the same compound, the HC50 at 1 h [7] was > 200 µg/mL.

Work on CNCCCCOc1ccc2c(c1)CCCN2CC=C(C)C yielded an MIC [1] of 50 µg/mL (≈ 165 µM), an MIC [2] of 50 µg/mL (≈ 165 µM) and an MIC [3] of 25 µg/mL (≈ 82.7 µM). It also gave an MIC [4] of 6.25 µg/mL (≈ 20.7 µM), an MIC [5] of 12.5 µg/mL (≈ 41.3 µM) and an MIC [6] of 25 µg/mL (≈ 82.7 µM). For the same compound, the HC50 at 1 h [7] was > 200 µg/mL.

For CC(C)=CCC/C(C)=C/CN1CCCc2cc(OCCCCBr)ccc21, the MIC [1] was > 50 µg/mL, the MIC [2] was 50 µg/mL (≈ 119 µM) and the MIC [3] was 25 µg/mL (≈ 59.5 µM). For the same compound, the MIC [4] was 25 µg/mL (≈ 59.5 µM), the MIC [5] was 25 µg/mL (≈ 59.5 µM) and the MIC [6] was > 50 µg/mL. For the same compound, the HC50 at 1 h [7] was > 200 µg/mL.

With CC(C)=CCN1CCCc2cc(OCCCCCCCCBr)ccc21 the MIC [1] was 50 µg/mL (≈ 122 µM), the MIC [2] was 50 µg/mL (≈ 122 µM) and the MIC [3] was > 50 µg/mL. The MIC [4] was > 50 µg/mL, the MIC [5] was > 50 µg/mL and the MIC [6] was > 50 µg/mL. For the same compound, the HC50 at 1 h [7] was > 200 µg/mL.

For CCCCCNCCCCOc1ccc2c(c1)CCCN2CC=C(C)C, the MIC [1] was > 50 µg/mL, the MIC [2] was > 50 µg/mL and the MIC [3] was 6.25 µg/mL (≈ 17.4 µM). The MIC [4] was 6.25 µg/mL (≈ 17.4 µM), the MIC [5] was 6.25 µg/mL (≈ 17.4 µM) and the MIC [6] was 50 µg/mL (≈ 139 µM). It also gave an HC50 at 1 h [7] of 146 µg/mL.

For CCCCCCCN1CCCc2cc(OCCCCCCCCBr)ccc21, the MIC [1] was > 50 µg/mL, the MIC [2] was > 50 µg/mL and the MIC [3] was > 50 µg/mL. The MIC [4] was > 50 µg/mL, the MIC [5] was > 50 µg/mL and the MIC [6] was > 50 µg/mL. For the same compound, the HC50 at 1 h [7] was > 200 µg/mL.

With CCCN1CCCc2cc(O)ccc21 the MIC [1] was > 50 µg/mL, the MIC [2] was > 50 µg/mL and the MIC [3] was > 50 µg/mL. For the same compound, the MIC [4] was > 50 µg/mL, the MIC [5] was > 50 µg/mL and the MIC [6] was > 50 µg/mL. The HC50 at 1 h [7] was > 200 µg/mL.

In the case of CCCCCCCN1CCCc2cc(OCC(=O)N[C@@H](CCCNC(=N)N)C(=O)N[C@@H](CCCNC(=N)N)C(=O)OC)ccc21, the MIC [1] is reported as > 50 µg/mL, the MIC [2] is reported as 50 µg/mL (≈ 79.1 µM) and the MIC [3] is reported as 6.25 µg/mL (≈ 9.89 µM). It also gave an MIC [4] of 3.12 µg/mL (≈ 4.95 µM), an MIC [5] of 3.12 µg/mL (≈ 4.95 µM) and an MIC [6] of 50 µg/mL (≈ 79.1 µM). For the same compound, the HC50 at 1 h [7] was > 200 µg/mL.

In the case of Oc1ccc2c(c1)CCCN2, the MIC [1] is reported as > 50 µg/mL, the MIC [2] is reported as > 50 µg/mL and the MIC [3] is reported as > 50 µg/mL. For the same compound, the MIC [4] was > 50 µg/mL, the MIC [5] was > 50 µg/mL and the MIC [6] was > 50 µg/mL. For the same compound, the HC50 at 1 h [7] was > 200 µg/mL.

CCCCCCCN1CCCc2cc(OCCCCBr)ccc21 gave an MIC [1] of 25 µg/mL (≈ 65.4 µM), an MIC [2] of 12.5 µg/mL (≈ 32.7 µM) and an MIC [3] of 12.5 µg/mL (≈ 32.7 µM). It also gave an MIC [4] of 6.25 µg/mL (≈ 16.3 µM), an MIC [5] of 6.25 µg/mL (≈ 16.3 µM) and an MIC [6] of 25 µg/mL (≈ 65.4 µM). For the same compound, the HC50 at 1 h [7] was > 200 µg/mL.

With CC(C)=CCN1CCCc2cc(OCCCCNC(=N)N)ccc21 the MIC [1] was > 50 µg/mL, the MIC [2] was > 50 µg/mL and the MIC [3] was 3.12 µg/mL (≈ 9.46 µM). It also gave an MIC [4] of 1.56 µg/mL (≈ 4.72 µM), an MIC [5] of 3.12 µg/mL (≈ 9.46 µM) and an MIC [6] of 25 µg/mL (≈ 75.6 µM). For the same compound, the HC50 at 1 h [7] was > 200 µg/mL.
